Results published in PMC10508484, “Development and application of a PBPK modeling strategy to support antimalarial drug development” (CPT: Pharmacometrics & Systems Pharmacology, 2023).
Several values for one entry are separate records, joined by “and”; a condition that tells them apart may be missing. Equal entries are not always repeated. Where two headings read alike, the source gives them in different places. Blank lines part the entries; values can stand above or below the compound they belong to.

What was measured:
CYP2C19 = CYP2C19 (Homo sapiens, UniProt P33261); experiment: Metabolism by CYP2C19 (CLint, fm); assay type: in vitro ADME; conditions: for fmCYP2C19: fraction metabolised used in the PBPK model (proguanil: total, all routes)
Chain of CYP2C19 (P33261 whole entry): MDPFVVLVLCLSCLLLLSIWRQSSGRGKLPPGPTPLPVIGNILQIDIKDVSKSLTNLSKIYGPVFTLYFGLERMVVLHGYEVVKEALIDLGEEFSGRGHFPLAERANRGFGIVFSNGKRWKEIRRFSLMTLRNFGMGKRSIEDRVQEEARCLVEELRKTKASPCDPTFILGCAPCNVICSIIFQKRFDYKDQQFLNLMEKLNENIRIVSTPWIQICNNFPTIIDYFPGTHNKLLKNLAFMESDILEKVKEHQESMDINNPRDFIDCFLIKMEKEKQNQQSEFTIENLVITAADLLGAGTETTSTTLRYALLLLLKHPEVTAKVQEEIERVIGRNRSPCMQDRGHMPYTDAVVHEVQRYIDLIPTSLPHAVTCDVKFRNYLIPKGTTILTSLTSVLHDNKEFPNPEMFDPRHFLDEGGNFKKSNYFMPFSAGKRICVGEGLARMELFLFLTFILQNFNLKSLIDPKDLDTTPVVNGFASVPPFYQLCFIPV
Source text: (§1) In nearly all cases the fraction of systemic elimination metabolised by a given enzyme (fm) determined in vitro was unavailable in the literature.

Caco-2 cells = conditions: calibrated against propranolol; plasma as medium for atovaquone and piperaquine; ref Charman et al., 2020 1; cited from earlier work
[1] = Fraction unbound in human liver microsomes (fumic); conditions: method of Austin et al., 2002
CYP2C8 [2] = biological target: T1, CYP2C8 (Homo sapiens, UniProt P10632); experiment: biochemical
T1 sequence (P10632 1-490): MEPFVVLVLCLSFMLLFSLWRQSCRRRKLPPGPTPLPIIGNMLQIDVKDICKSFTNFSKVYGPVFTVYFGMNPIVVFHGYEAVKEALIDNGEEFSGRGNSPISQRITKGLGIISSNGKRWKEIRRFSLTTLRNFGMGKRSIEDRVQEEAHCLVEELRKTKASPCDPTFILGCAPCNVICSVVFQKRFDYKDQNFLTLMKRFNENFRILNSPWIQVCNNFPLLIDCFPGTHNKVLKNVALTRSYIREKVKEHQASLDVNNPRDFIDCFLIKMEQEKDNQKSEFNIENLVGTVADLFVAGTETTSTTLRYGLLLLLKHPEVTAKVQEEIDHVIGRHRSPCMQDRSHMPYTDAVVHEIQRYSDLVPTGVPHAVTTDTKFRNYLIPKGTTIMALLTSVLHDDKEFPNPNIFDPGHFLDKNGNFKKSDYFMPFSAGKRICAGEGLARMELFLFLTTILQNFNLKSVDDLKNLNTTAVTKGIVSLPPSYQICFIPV

[3] = Blood to plasma ratio (B:P); conditions: PBPK input; unpublished (in-house) data
[4] = PBPK input; ref Charman et al., 2020 1; cited from earlier work
[5] = Fraction unbound in plasma (fu), main binding protein; conditions: PBPK input; unpublished (in-house) data
[6] = cited from earlier work
CYP2C8 [7] = biological target: T1, CYP2C8; experiment: Metabolism by CYP2C8 (CLint, fm)
Source text: as §1

[8] = PBPK absorption inputs (fa, ka, tlag, Qgut, Fg); set-up: species or system human; conditions: for fa: derived from ascending dose studies, McCarthy et al., 2017
Source text: Initial models were built based on available physicochemical and in vitro data to give a ‘bottom-up’ prediction. Areas of uncertainty were highlighted, and the potential impact of uncertainty associated with such parameters was investigated using sensitivity analysis. Available clinical PK data were then used to evaluate and, if required, refine the initial ‘bottom-up’ model. Care was taken to split data into training and test sets wherever possible. The model verification strategy differed across compounds based on availability of different types of clinical data. […] Clinical studies used for drug model development and verification are reported in Table S2 (PK) and Table S3 (DDIs).

OCT1 = test system: OCT1; set-up: method as in Ito et al., 2010 68, Panfen et al., 2019 69; conditions: average; ref Ito et al., 2010 68, Panfen et al., 2019 69; cited from earlier work
OCT2 = conditions: read-out: OCT2 Ki; ref Kusuhara et al., 2011 70; cited from earlier work
[9] = ref Charman et al., 2020 1; cited from earlier work
[10] = In vitro flags for victim and perpetrator properties conferring DDI liability; assay type: in vitro ADME, human; conditions: in vitro flag, mainly based on in vitro determinations
MATEs = biological target: MATEs; set-up: method as in Miyake et al., 2021 71; conditions: average of MATE1 and MATE2-K; ref Miyake et al., 2021 71; cited from earlier work
[11] = PBPK input; ref amodiaquine, DEAQ Winstanley et al., 1987 9; atovaquone Rolan et al., 1997 14; azithromycin Lalak et al., 1993 23; carboxyprimaquine Mihaly et al., 1985 26; chloroquine Walker et al., 1987 29; DHA EMA Website, 44; doxycycline Raghuram et al., 1982 48, Nguyen et al., 1989 49; mefloquine Schwartz et al., 1982 57; primaquine White, 1985 62; proguanil Jeppesen et al., 1997 34; pyrimeth; cited from earlier work
[12] = Hepatic / HLM intrinsic clearance, enzyme not defined; conditions: human, liver microsomes
[13] = PBPK input; ref Charman et al., 2020 1; cited from earlier work; remark: listed apart in the source
CYP2C8 [14] = biological target: T1, CYP2C8
[15] = measured (0.4 mg/mL protein where stated); ref Charman et al., 2020 1; cited from earlier work
CYP2C9 = experiment: Metabolism by CYP2C9 (CLint, fm); assay type: in vitro ADME, human
Source text: as §1

CYP3A4 [16] = biological target: T2, CYP3A4 (Homo sapiens, UniProt P08684); conditions: cited from earlier work
T2 sequence (P08684 whole entry): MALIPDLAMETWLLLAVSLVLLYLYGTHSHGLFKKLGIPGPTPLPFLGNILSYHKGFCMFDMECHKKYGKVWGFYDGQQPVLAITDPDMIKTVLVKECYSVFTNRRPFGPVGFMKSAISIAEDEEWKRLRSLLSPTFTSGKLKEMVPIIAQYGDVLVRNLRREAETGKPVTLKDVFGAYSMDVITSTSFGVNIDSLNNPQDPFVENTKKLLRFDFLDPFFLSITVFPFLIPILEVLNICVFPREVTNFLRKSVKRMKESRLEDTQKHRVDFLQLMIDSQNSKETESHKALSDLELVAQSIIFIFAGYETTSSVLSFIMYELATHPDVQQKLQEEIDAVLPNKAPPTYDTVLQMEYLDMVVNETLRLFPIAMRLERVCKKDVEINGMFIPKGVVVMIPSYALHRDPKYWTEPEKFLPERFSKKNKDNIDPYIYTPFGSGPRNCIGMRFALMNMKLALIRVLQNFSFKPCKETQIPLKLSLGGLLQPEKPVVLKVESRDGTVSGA

in vitro = conditions: human, plasma
[17] = piperaquine 960 mg SD + clarithromycin 500 mg SD; ref Eurartesim - EMA Website, 12; cited from earlier work
CYP3A4 [18] = biological target: T2, CYP3A4; experiment: CYP3A4 inhibition (direct and time-dependent); conditions: Derived from IC50 shift data (single time point), unpublished data
CYP3A4 [19] = biological target: T2, CYP3A4
Source text: as §1

CYP3A4 [20] = biological target: T2, CYP3A4; experiment: in vitro
[21] = fraction metabolised used in the PBPK model
[22] = HLM CLint 31.6 µL/min/mg with 20% split equally between CYP2C9 and CYP2C19
[23] = Relative fa (in vivo fasted AUC / high fat fed AUC), EMA Website

- CLint CYP2C19 (CYP2C19; Unpublished MMV in house data): 1.751 µL/min/pmol
- fmCYP2C19 (CYP2C19): 30% and ~ 30%
- fumic ([1]; extrapolated from value measured at 0.4 mg/mL to 0.1 mg/mL): 0.61
- fumic ([1]; for CYP2C8 Ki, extrapolated from 0.4mg/mL to 0.2 mg/mL): 0.44
- Ki (CYP2C8 [2]): 3.1 µM and 1.18 µM
- B:P [3]: 0.70
- fu [5]: 0.001
- CLint CYP2C8 (CYP2C8 [7]; Unpublished MMV in house data): 2.384 µL/min/pmol
- fmCYP2C8 (CYP2C8 [7]; [21]): 70% and ~ 70%
- fa ([8]; doses 400 mg and above): 0.7
- fa ([8]; doses 25 - 250 mg): 1
Compound: Cc1cc(Nc2ccc(S(F)(F)(F)(F)F)cc2)n2nc(C(C)(F)F)nc2n1 [DSM265]
- Caco-2 (Papp A-B) (Caco-2 cells): 61 10-6 cm/s
- Log P [4]: 4.03
- AUC Obs ([6]; DSM265 400 mg SD, 0-inf, ref McCarthy et al., 2017 46): 1210 µg·h/mL
- Cmax Obs ([6]; DSM265 400 mg SD, ref McCarthy et al., 2017 46): 11500 ng/mL
- AUC Obs ([6]; DSM265 600 mg SD, 0-inf, ref McCarthy et al., 2017 46): 2140 µg·h/mL
- Cmax Obs ([6]; DSM265 600 mg SD, ref McCarthy et al., 2017 46): 15500 ng/mL
- AUC Obs ([6]; DSM265 800 mg SD, 0-inf, ref McCarthy et al., 2017 46): 2220 µg·h/mL
- Cmax Obs ([6]; DSM265 800 mg SD, ref McCarthy et al., 2017 46): 19100 ng/mL
- AUC Obs ([6]; DSM265 1200 mg SD, 0-inf, ref McCarthy et al., 2017 46): 4720 µg·h/mL
- Cmax Obs ([6]; DSM265 1200 mg SD, ref McCarthy et al., 2017 46): 34800 ng/mL

Compound: CCc1nc(N)nc(N)c1-c1ccc(Cl)cc1 [Pyrimethamine, pyrimethamine]
- Ki (OCT1): 2.3 µM
- Ki (OCT2): 10 µM
- Caco-2 (Papp A-B) (Caco-2 cells): 59.8 10-6 cm/s
- pKa(s) [9]: 6.86
- Risk as a perpetrator [10]: OCT2 and MATE inhibitor
- Ki (MATEs): 0.124 µM
- CL renal [11]: 0.0989 L/h
- Cmax Obs ([6]; in vivo, 100 mg): 771 ng/mL
- microsomal CLint [12]: 1.8 µL/min/mg
- fu [13]: 0.095

- Ki (CYP2C8 [14]): 4.46 µM
Compound: CC(F)(F)c1nc2nc(CO)cc(Nc3ccc(S(F)(F)(F)(F)F)cc3)n2n1 [DSM450]
- AUC Obs ([6]; in vivo, 400 mg): 271 µg·h/mL
- Cmax Obs ([6]; in vivo, 400 mg): 1070 ng/mL
- AUC Obs ([6]; in vivo, 600 mg): 477 µg·h/mL
- Cmax Obs ([6]; in vivo, 600 mg): 1380 ng/mL
- AUC Obs ([6]; in vivo, 800 mg): 454 µg·h/mL
- Cmax Obs ([6]; in vivo, 800 mg): 1920 ng/mL
- AUC Obs ([6]; in vivo, 1200 mg): 1170 µg·h/mL
- Cmax Obs ([6]; in vivo, 1200 mg): 3070 ng/mL

- CLint CYP2C9 (CYP2C9; [22]): 3.16 µL/min/pmol
- fmCYP2C9 (CYP2C9; [21]): 10%
- CLint CYP2C19 (CYP2C19; [22]): 3.16 µL/min/pmol
- fmCYP2C19 (CYP2C19): 10%
- Risk as a perpetrator [10]: CYP3A4 time‐dependent inhibitor
- Risk as a victim [10]: Substrate of CYP3A4, CYP2C9 and CYP2C19
- B:P [3]: 0.9
- fraction unbound (in vitro): 0.006
- CYP3A4 KI (CYP3A4 [18]): 0.12 µM
- microsomal CLint [12]: 31.6 µL/min/mg
- fmCYP3A4 (CYP3A4 [19]): 80%
- CLint CYP3A4 (CYP3A4 [19]; microsomes): 25.3 µL/min/pmol
- kinact (CYP3A4 [20]): 0.000347 s⁻¹
- fa - 960 mg fasted [8, 23]: 0.4
- fa - 1280 mg fasted [8, 23]: 0.33
- fa - 960 mg fed ([8]; Relative fa, EMA Website): 1
- fa - 1280 mg fed ([8]; Relative fa, EMA Website): 1
Compound: Clc1ccc2c(N3CCN(CCCN4CCN(c5ccnc6cc(Cl)ccc56)CC4)CC3)ccnc2c1 [Piperaquine, piperaquine]
- fumic [15]: 0.013
- Ki (CYP3A4 [16]): 3 µM
- Caco-2 (Papp A-B) (Caco-2 cells): 233 10-6 cm/s
- Log P [4]: 5.27
- AUC Obs ([6]; 960 mg QD (fasted, Day 3), 0-72 h, ref Eurartesim S06, Females <75 kg): 5.38 µg·h/mL
- AUC Obs ([6]; 960 mg QD (fasted, Day 3), 0-72 h, ref Eurartesim S06, Males <75 kg): 3.93 µg·h/mL
- Cmax Obs ([6]; 960 mg QD (fasted, Day 3), ref Eurartesim S06, Females <75 kg): 505 ng/mL
- Cmax Obs ([6]; 960 mg QD (fasted, Day 3), ref Eurartesim S06, Males <75 kg): 280 ng/mL
- AUC Obs ([6]; 960 mg QD (fed, Day 3), 0-72 h, ref Eurartesim S06, Females <75 kg): 12.5 µg·h/mL
- AUC Obs ([6]; 960 mg QD (fed, Day 3), 0-72 h, ref Eurartesim S06, Males <75 kg): 10.7 µg·h/mL
- Cmax Obs ([6]; 960 mg QD (fed, Day 3), ref Eurartesim S06, Females <75 kg): 1270 ng/mL
- Cmax Obs ([6]; 960 mg QD (fed, Day 3), ref Eurartesim S06, Males <75 kg): 1120 ng/mL
- AUC Obs ([6]; 1280 mg QD (fasted), 0-72 h, ref Eurartesim S06, Males ≥75 kg): 3.93 µg·h/mL
- Cmax Obs ([6]; 1280 mg QD (fasted), ref Eurartesim S06, Males ≥75 kg): 280 ng/mL
- AUC Obs ([6]; 1280 mg QD (fed), 0-72 h, ref Eurartesim S06, Males ≥75 kg EMA Website, 33): 10.7 µg·h/mL
- Cmax Obs ([6]; 1280 mg QD (fed), ref Eurartesim S06, Males ≥75 kg EMA Website, 33): 1120 ng/mL
- AUC Obs ([6]; 1280 mg SD tetraphosphate salt, 0-72 h, ref EMA Website, 33): 3.01 µg·h/mL
- Cmax Obs ([6]; 1280 mg SD tetraphosphate salt, ref EMA Website, 33): 190 ng/mL
- AUC ratio Obs [17]: ≤ 2 fold
- Cmax ratio Obs [17]: ≤ 2 fold
